# In ChEMBL document CHEMBL6109072, “Discovery of highly potent dual GSPT1/BRD4 degraders with anti-AML activity” (Eur J Med Chem, 2025):
# Activity calls are given as the source filed them. The rule behind the calls is not given here.
# Assays:
# MOLM-13 [1] = assay: Antiproliferative activity against human MOLM-13 cells assessed as cell viability at 0.1 uM incubated for 3 days by CCK8 assay relative to control; assay type: functional; conditions: MOLM-13, 72 h, time 3 day, read-out: Activity
# MOLM-13 [2] = assay: Antiproliferative activity against human MOLM-13 cells incubated for 3 days by CCK8 assay; assay type: functional, cell-based; conditions: for IC50: MOLM-13, 72 h
# [3] = target: T1, Protein cereblon/Eukaryotic peptide chain release factor GTP-binding subunit ERF3A (Mus musculus) (UniProt Q8C7D2+Q8R050); assay: PROTAC activity at CRBN/GSPT1 in mouse A9 cells assessed as fold increase in translational readthrough activity at 0.8 to 20 uM incubated for 48 hrs by Western blot analysis relative to control; assay type: cell-based; conditions: dose 0.8-20 µM
# [4] = target: T1, Protein cereblon/Eukaryotic peptide chain release factor GTP-binding subunit ERF3A (Mus musculus); assay: PROTAC activity at CRBN/GSPT1 in mouse A9 cells harboring pCDH-BSD-M6/pIRES-GFluc assessed as increase in translational readthrough activity at 0.8 to 20 uM incubated for 48 hrs by Western blot analysis; assay type: cell-based; conditions: dose 0.8-20 µM
# [5] = target: T1, Protein cereblon/Eukaryotic peptide chain release factor GTP-binding subunit ERF3A (Mus musculus); assay: PROTAC activity at CRBN/GSPT1 in mouse A9 cells harboring pCDH-BSD-M6/pIRES-GFluc assessed as GSPT1 degradation at 0.8 to 20 uM incubated for 48 hrs by Western blot analysis; assay type: cell-based; conditions: dose 0.8-20 µM
# A9 = assay: Effect on eRF1 expression in mouse A9 cells harboring pCDH-BSD-M6/pIRES-GFluc at 0.8 to 20 uM incubated for 48 hrs by Western blot analysis; assay type: functional, cell-based; conditions: dose 0.8-20 µM
# NB-4 = assay: Antiproliferative activity against human NB4 cells incubated for 3 days by CCK8 assay; assay type: functional, cell-based; conditions: for IC50: NB-4, 72 h
# HL-60 = assay: Antiproliferative activity against human HL-60 cells incubated for 3 days by CCK8 assay; assay type: functional, cell-based; conditions: for IC50: HL-60, 72 h
# OCI-AML-3 = assay: Antiproliferative activity against human OCI-AML-3 cells incubated for 3 days by CCK8 assay; assay type: functional, cell-based
# THP-1 = assay: Antiproliferative activity against human THP-1 cells incubated for 3 days by CCK8 assay; assay type: functional, cell-based; conditions: for IC50: THP-1, 72 h
# Raji = assay: Antiproliferative activity against human Raji cells incubated for 3 days by CCK8 assay; assay type: functional, cell-based; conditions: 72 h
# KARPAS-299 = assay: Antiproliferative activity against human KARPAS-299 cells incubated for 3 days by CCK8 assay; assay type: functional, cell-based
# SU-DHL-1 = assay: Antiproliferative activity against human SU-DHL-1 cells incubated for 3 days by CCK8 assay; assay type: functional, cell-based; conditions: SU-DHL-1, 72 h
# Daudi = assay: Antiproliferative activity against human Daudi cells incubated for 3 days by CCK8 assay; assay type: functional, cell-based; conditions: 72 h
# [6] = target: T2, Protein cereblon/Bromodomain-containing protein 4 (Homo sapiens, UniProt O60885+Q96SW2); assay: PROTAC activity at CRBN/BRD4 in human MOLM-13 cells assessed as BRD4 degradation at 1 uM incubated for 24 hrs by Western blot analysis; assay type: cell-based
# [7] = target: Protein cereblon/Eukaryotic peptide chain release factor GTP-binding subunit ERF3A (Homo sapiens, UniProt Q96SW2+P15170); assay: PROTAC activity at CRBN/GSPT1 in human MOLM-13 cells assessed as GSPT1 degradation at 100 nM incubated for 6 hrs by Western blot analysis; assay type: cell-based
# [8] = target: T2, Protein cereblon/Bromodomain-containing protein 4; assay: PROTAC activity at CRBN/BRD4 in human MOLM-13 cells assessed as BRD4 degradation at 100 nM incubated for 6 hrs by Western blot analysis; assay type: cell-based
# [9] = Toxicity in IL2Rg-null NSG mouse xenografted with human MOLM-13 cells expressing GFP-Fluc assessed as hemolysis measured after 48 hrs
# [10] = Toxicity in IL2Rg-null NSG mouse xenografted with human MOLM-13 cells expressing GFP-Fluc assessed as animal death measured after 48 hrs
# T1 sequence (Q8C7D2 whole entry, looked up): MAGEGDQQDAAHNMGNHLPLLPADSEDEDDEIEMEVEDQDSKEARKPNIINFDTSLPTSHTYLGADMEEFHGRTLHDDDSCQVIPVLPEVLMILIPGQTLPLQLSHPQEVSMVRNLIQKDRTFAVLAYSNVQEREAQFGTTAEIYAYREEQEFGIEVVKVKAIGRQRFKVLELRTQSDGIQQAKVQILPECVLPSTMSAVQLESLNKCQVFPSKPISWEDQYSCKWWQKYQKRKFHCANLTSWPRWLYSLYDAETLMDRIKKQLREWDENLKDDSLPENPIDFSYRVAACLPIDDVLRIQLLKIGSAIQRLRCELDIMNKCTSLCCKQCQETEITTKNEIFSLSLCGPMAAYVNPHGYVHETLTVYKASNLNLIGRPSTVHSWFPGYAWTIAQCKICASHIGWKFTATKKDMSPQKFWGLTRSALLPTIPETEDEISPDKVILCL
# T1 sequence (Q8R050 whole entry, looked up): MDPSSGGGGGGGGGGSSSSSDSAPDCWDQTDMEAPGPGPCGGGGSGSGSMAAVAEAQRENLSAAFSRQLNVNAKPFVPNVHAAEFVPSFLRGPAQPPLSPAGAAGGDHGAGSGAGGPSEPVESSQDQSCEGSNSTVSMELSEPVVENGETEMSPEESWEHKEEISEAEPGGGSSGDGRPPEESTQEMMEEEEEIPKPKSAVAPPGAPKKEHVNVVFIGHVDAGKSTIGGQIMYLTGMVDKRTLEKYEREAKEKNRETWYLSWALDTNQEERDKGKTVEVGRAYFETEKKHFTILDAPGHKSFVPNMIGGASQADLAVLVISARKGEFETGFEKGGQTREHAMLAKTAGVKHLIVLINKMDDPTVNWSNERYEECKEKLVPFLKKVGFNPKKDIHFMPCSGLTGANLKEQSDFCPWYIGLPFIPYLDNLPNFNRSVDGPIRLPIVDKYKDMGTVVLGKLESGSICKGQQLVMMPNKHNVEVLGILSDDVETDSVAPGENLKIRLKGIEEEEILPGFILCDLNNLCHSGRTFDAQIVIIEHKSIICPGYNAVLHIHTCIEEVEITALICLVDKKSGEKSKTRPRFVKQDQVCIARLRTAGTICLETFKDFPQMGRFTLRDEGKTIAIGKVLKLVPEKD
# T2 sequence (Q96SW2 whole entry, looked up, other chains not shown): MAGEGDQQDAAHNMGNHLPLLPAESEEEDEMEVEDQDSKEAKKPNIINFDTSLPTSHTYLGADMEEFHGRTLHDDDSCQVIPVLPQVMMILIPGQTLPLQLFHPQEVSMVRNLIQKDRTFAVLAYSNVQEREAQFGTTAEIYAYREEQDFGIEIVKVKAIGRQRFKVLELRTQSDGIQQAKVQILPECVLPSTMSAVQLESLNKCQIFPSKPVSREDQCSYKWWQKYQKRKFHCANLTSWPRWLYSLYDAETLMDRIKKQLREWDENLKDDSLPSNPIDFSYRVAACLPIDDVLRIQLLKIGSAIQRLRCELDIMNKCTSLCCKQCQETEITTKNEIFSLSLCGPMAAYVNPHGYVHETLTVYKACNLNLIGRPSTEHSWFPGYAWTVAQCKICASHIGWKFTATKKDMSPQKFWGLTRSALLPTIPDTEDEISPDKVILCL
# Chain of Protein cereblon/Eukaryotic peptide chain release factor GTP-binding subunit ERF3A (P15170 whole entry, looked up): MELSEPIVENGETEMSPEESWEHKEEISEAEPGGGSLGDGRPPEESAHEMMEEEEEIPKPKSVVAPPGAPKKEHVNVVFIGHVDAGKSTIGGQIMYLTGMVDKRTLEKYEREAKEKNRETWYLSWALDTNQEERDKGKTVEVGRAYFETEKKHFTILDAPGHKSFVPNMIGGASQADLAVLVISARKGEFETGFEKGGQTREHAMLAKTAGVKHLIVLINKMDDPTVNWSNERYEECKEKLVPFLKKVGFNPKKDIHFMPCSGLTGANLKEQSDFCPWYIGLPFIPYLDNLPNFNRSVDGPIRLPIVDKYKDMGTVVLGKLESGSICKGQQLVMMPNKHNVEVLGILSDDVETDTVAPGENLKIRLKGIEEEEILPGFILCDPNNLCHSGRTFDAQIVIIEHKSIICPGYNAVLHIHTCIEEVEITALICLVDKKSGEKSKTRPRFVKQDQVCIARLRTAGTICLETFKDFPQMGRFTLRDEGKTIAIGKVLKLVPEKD
# Chain of Protein cereblon/Eukaryotic peptide chain release factor GTP-binding subunit ERF3A (Q96SW2 whole entry, looked up): as the sequence (Q96SW2 whole entry, looked up, other chains not shown) above
SMILES,IC50 (MOLM-13 [2]) [µM],Activity [6],viability at 0.1 µM (MOLM-13 [1]) [%],"IC50 (OCI-AML-3; Homo sapiens, OCI-AML-3, 72 h) [µM]",IC50 (Raji) [µM],"IC50 (KARPAS-299; Homo sapiens, KARPAS-299, 72 h) [µM]",further results
Cc1sc2c(c1C)C(c1ccc(Cl)cc1)=N[C@@H](CC(=O)N1CC(N3CCN(c4cccc5c4C(=O)N(C4CCC(=O)NC4=O)C5=O)CC3)C1)c1nnc(C)n1-2 (some centres undefined),,,124,,,,
Cc1sc2c(c1C)C(c1ccc(Cl)cc1)=N[C@@H](CC(=O)N1CCC(CN3CCN(c4cccc5c4C(=O)N(C4CCC(=O)NC4=O)C5=O)CC3)CC1)c1nnc(C)n1-2 (some centres undefined),,,79.6,,,,
Cc1sc2c(c1C)C(c1ccc(Cl)cc1)=N[C@@H](CC(=O)NCCNc1cccc3c1C(=O)N(C1CCC(=O)NC1=O)C3=O)c1nnc(C)n1-2 (some centres undefined),0.15,Active,,0.325,0.183,0.82,fold change (FC) [3]: 7; Activity [4]: Active; Activity [5]: Active; Activity (A9): No effect; IC50 (NB-4): 0.0926 µM; Activity (NB-4; time 3.0 day): Active; Activity (MOLM-13 [2]; time 3.0 day): Active; IC50 (HL-60): 0.343 µM; Activity (HL-60; time 3.0 day): Active; IC50 (OCI-AML-3; oci-aml-3): 0.381 µM; Activity (OCI-AML-3; time 3.0 day): Active; IC50 (THP-1): 0.553 µM; Activity (THP-1; time 3.0 day): Active; IC50 (KARPAS-299; karpas-299): 0.913 µM; IC50 (SU-DHL-1): 0.195 µM; IC50 (Daudi): 0.266 µM
Cc1sc2c(c1C)C(c1ccc(Cl)cc1)=N[C@@H](CC(=O)N1CCN(C3CCN(c4ccc5c(c4)C(=O)N(C4CCC(=O)NC4=O)C5=O)CC3)CC1)c1nnc(C)n1-2 (some centres undefined),0.00607,Active,6.8,0.0173,0.0139,0.0206,IC50 (NB-4): 0.00426 µM; IC50 (HL-60): 0.00738 µM; IC50 (THP-1): 0.0164 µM; IC50 (SU-DHL-1): 0.0111 µM; IC50 (Daudi): 0.0102 µM; Activity [7]: Active; Activity [8]: Active; Activity [9]: Toxic; Activity [10]: Toxic
Cc1sc2c(c1C)C(c1ccc(Cl)cc1)=N[C@@H](CC(=O)N1CCC(N3CCN(c4cccc5c4C(=O)N(C4CCC(=O)NC4=O)C5=O)CC3)CC1)c1nnc(C)n1-2 (some centres undefined),,,72,,,,
Cc1sc2c(c1C)C(c1ccc(Cl)cc1)=N[C@@H](CC(=O)N1CC(CN3CCN(c4cccc5c4C(=O)N(C4CCC(=O)NC4=O)C5=O)CC3)C1)c1nnc(C)n1-2 (some centres undefined),,,110,,,,
Cc1sc2c(c1C)C(c1ccc(Cl)cc1)=N[C@@H](CC(=O)N1CCN(CC3CCN(c4cccc5c4C(=O)N(C4CCC(=O)NC4=O)C5=O)CC3)CC1)c1nnc(C)n1-2 (some centres undefined),0.0466,Active,18,,,,
Cc1sc2c(c1C)C(c1ccc(Cl)cc1)=N[C@@H](CC(=O)N1CC(N3CCN(c4ccc5c(c4)C(=O)N(C4CCC(=O)NC4=O)C5=O)CC3)C1)c1nnc(C)n1-2 (some centres undefined),0.0742,,9.49,,,,
Cc1sc2c(c1C)C(c1ccc(Cl)cc1)=N[C@@H](CC(=O)N1CCN(CC3CN(c4cccc5c4C(=O)N(C4CCC(=O)NC4=O)C5=O)C3)CC1)c1nnc(C)n1-2 (some centres undefined),0.0149,Active,11.7,0.0753,0.605,3.36,IC50 (NB-4): 0.0192 µM; IC50 (HL-60): 0.0637 µM; IC50 (THP-1): 0.103 µM; IC50 (SU-DHL-1): 0.117 µM; IC50 (Daudi): 0.257 µM; Activity [7]: Active; Activity [8]: Active
Cc1sc2c(c1C)C(c1ccc(Cl)cc1)=N[C@@H](CC(=O)N1CCN(C3CN(c4cccc5c4C(=O)N(C4CCC(=O)NC4=O)C5=O)C3)CC1)c1nnc(C)n1-2 (some centres undefined),,,66.2,,,,
O=C1CCC(N2Cc3cc(CNC(=O)C(F)(F)c4ccc(Cl)cc4)ccc3C2=O)C(=O)N1 (centres undefined),0.181,Active,,> 10,> 10,> 10,
Cc1sc2c(c1C)C(c1ccc(Cl)cc1)=N[C@@H](CC(=O)NCCCCNc1cccc3c1C(=O)N(C1CCC(=O)NC1=O)C3=O)c1nnc(C)n1-2 (some centres undefined),0.422,,,1.21,0.936,7.72,

# Now from value to compound, other results behind:
IC50 (MOLM-13 [2]) [µM],Activity [6],SMILES,viability at 0.1 µM (MOLM-13 [1]) [%],"IC50 (OCI-AML-3; Homo sapiens, OCI-AML-3, 72 h) [µM]",IC50 (Raji) [µM],"IC50 (KARPAS-299; Homo sapiens, KARPAS-299, 72 h) [µM]",further results
0.0254,,Cc1sc2c(c1C)C(c1ccc(Cl)cc1)=N[C@@H](CC(=O)N1CCC(N3CCN(c4ccc5c(c4)C(=O)N(C4CCC(=O)NC4=O)C5=O)CC3)CC1)c1nnc(C)n1-2 (some centres undefined),7.55,,,,
0.0135,Active,Cc1sc2c(c1C)C(c1ccc(Cl)cc1)=N[C@@H](CC(=O)N1CCN(CC3CN(c4ccc5c(c4)C(=O)N(C4CCC(=O)NC4=O)C5=O)C3)CC1)c1nnc(C)n1-2 (some centres undefined),8.1,0.0277,0.0821,0.33,IC50 (NB-4): 0.00603 µM; IC50 (HL-60): 0.0191 µM; IC50 (THP-1): 0.032 µM; IC50 (SU-DHL-1): 0.035 µM; IC50 (Daudi): 0.178 µM; Activity [7]: Active; Activity [8]: Active
0.0614,,Cc1sc2c(c1C)C(c1ccc(Cl)cc1)=N[C@@H](CC(=O)N1CCC(CN3CCN(c4ccc5c(c4)C(=O)N(C4CCC(=O)NC4=O)C5=O)CC3)CC1)c1nnc(C)n1-2 (some centres undefined),15.5,,,,
0.0372,Active,Cc1sc2c(c1C)C(c1ccc(Cl)cc1)=N[C@@H](CC(=O)N1CCN(C3CCN(c4cccc5c4C(=O)N(C4CCC(=O)NC4=O)C5=O)CC3)CC1)c1nnc(C)n1-2 (some centres undefined),19.3,,,,
0.0338,Active,Cc1sc2c(c1C)C(c1ccc(Cl)cc1)=N[C@@H](CC(=O)N1CC(CN3CCN(c4ccc5c(c4)C(=O)N(C4CCC(=O)NC4=O)C5=O)CC3)C1)c1nnc(C)n1-2 (some centres undefined),7.45,,,,
0.0187,Active,Cc1sc2c(c1C)C(c1ccc(Cl)cc1)=N[C@@H](CC(=O)N1CCN(C3CN(c4ccc5c(c4)C(=O)N(C4CCC(=O)NC4=O)C5=O)C3)CC1)c1nnc(C)n1-2 (some centres undefined),7.24,,,,
